Source: patent publication US20190382346A1, “(NITRO-PHENYL)-NITROPYRIDINE COMPOUNDS FOR TREATING SYNUCLEINOPATHIES” (UNIVERSITAT AUTONOMA DE BARCELONA, priority 2017, published 2019)

Key:
in vitro = format: cell-based; conditions: human
Description: Cultured cells of human neuroblastoma cell line SH-SY5Y were incubated for 72 h with either the vehicle (DMSO) or with different concentrations of the compound. Then, the cells were incubated with a cell viability indicator (PrestoBlue® Cell Viability Reagent). The modification of PrestoBlue® Cell Viability Reagent by the reducing environment of viable cells turns the dye red in color becoming highly fluorescent. This color change can be detected measuring fluorescence by exciting at 531 nm and detecting emission at 615 nm. The CC50 of compound D (concentration that caused death in 50% of the cells, i.e. reduction to 50% viability) was >700 μM (FIG. 6).

α-synuclein fibrils = target: T1, α-synuclein fibrils (Homo sapiens, UniProt P37840); test: Transmission Electron Microscopy of α-synuclein fibrils at end of aggregation reaction; format: biochemical; conditions: end of the aggregation reaction
T1 construct: made in house; host or cells: E. coli BL21 (DE3)
Description: α-synuclein fibers from final point reaction (either in absence or presence of the final concentration inhibitors) were collected in Eppendorfs. After diluting the aggregated α-synuclein to a concentration of 10 μM α-synuclein, each sample was sonicated for 10 minutes. 5 μL of these samples were placed on carbon-coated copper grids and allowed to stand for 5 minutes. Then, samples were carefully dried with filter paper to remove the excess of sample. Grids were washed twice with MiliQ water by immersion and stained by incubating grids with 5 μL 2% (w/v) uranyl acetate for 2 minutes for the negative staining. After removal of the uranyl acetate excess with filter paper, grids were let to air-dry for 10 minutes. The samples were imaged using a Jeol 1400 Transmission Electron Microscopy operating at an accelerating voltage of 120 kV. 30 fields were screened at least, to obtain representative images.

[1] = system: human wild-type α-synuclein fused to yellow fluorescent protein (YFP); test: C. elegans α-synuclein aggregation model; format: in vivo; conditions: 10 μM compound, 5 days from L4 stage, strain NL5901
Description: α-synuclein aggregation was assessed using an C. elegans in vivo model described by (Van Ham et al., 2008) and (Muñoz-Lobato et al., 2014).
The nematode strain NL5901, unc-119(ed3) III; [pkls2386 (Punc-54::α-syn::yfp; unc-119(+))] was obtained from the Caenorhabditis elegans Genetic Center (CGC), University of Minnesota, USA. The strain expresses a fusion of human wildtype α-synuclein and yellow fluorescent protein (YFP) in body wall muscle cells. The nematodes were maintained using standard procedures, grown in NGM agar plates and fed with E coli (OP50 strain). Adult worms were bleached to get synchronized nematode cultures. NGM-agar plates with a) DMSO only (vehicle) and b) 10 μM final concentration of the tested compound were prepared. Afterwards, OP50 containing a) or b) was added to NGM plates and let dry for 24 h. […] After 5 days of development (L4+5) the numbers of α-synuclein aggregates were determined using a fluorescence microscope. […] The same section in each animal was analyzed and captured in stacks to include aggregates contained from the top to the bottom of each animal ([…], 25 stacks). Image analysis was performed using ImageJ software, from the Z MAX acquisition, quantifying the number of α-synuclein-YFP aggregates. Final quantification and statistics was performed by the Graph Pad Prism 6.0 software, comparing vehicle-treated worms with drug-treated animals. […]

[2] = target: T2, human A30P mutant α-synuclein (Homo sapiens, UniProt P37840, A30P); test: thioflavin-T aggregation assay, A30P mutant; format: biochemical; conditions: 100 μM compound, 70 μM α-synuclein, 24 h
T2 construct: made in house; host or cells: E. coli BL21 (DE3)
Description: (§1) Previously lyophilized α-synuclein was carefully dissolved in PBS buffer to a final concentration of 210 μM and filtered through a Millipore s 0.22-μm filter. α-synuclein aggregation assay was performed in a 96 wells plate (non-treated, black plastic) containing in each well a Teflon polyball (3.175 mm in diameter), 40 μM thioflavin-T, 70 μM α-synuclein, 100 μM of the tested compound and PBS up to a final volume of 150 μL. Plates were fixed into an orbital culture shaker Max-Q 4000 Thermo Scientific to keep the incubation at 37° C., 100 rpm. Every 2 hours, the fluorescence intensity was measured using a Victor3.0 Multilabel Reader by exciting the mixtures with 430-450 filter and collecting the emission intensity with 480-510 filter (triplicates for each measurement). Each plate contained 3 α-synuclein controls in the absence of any compound. The averaged Th-T fluorescence obtained for these wells at the end of the experiment was normalized to 1 and the kinetic curves in the different wells re-scaled accordingly. Re-scaled curves were used to compare the controls with the effect of the tested compound and to ensure that the controls were reproducible between different experiments. […] After 2 weeks, scattering of the samples was analyzed at 300 nm and 340 nm using a Varian fluorimeter. […] Every 2 hours, the thioflavin-T fluorescence intensity was measured as described above.

[3] = target: T3, human wild-type α-synuclein (Homo sapiens, UniProt P37840); test: α-synuclein aggregation scattering assay; format: biochemical; conditions: 100 μM compound, 70 μM α-synuclein, 2 weeks, 37° C., 600 rpm
T3 construct: made in house; host or cells: E. coli BL21 (DE3)
Description: Previously lyophilized α-synuclein was carefully dissolved in PBS buffer to a final concentration of 210 μM and filtered through a Millipore s 0.22-μm filter. α-synuclein aggregation assay was performed in a 96 wells plate (non-treated, black plastic) containing in each well a Teflon polyball (3.175 mm in diameter), 40 μM thioflavin-T, 70 μM α-synuclein, 100 μM of the tested compound and PBS up to a final volume of 150 μL. Plates were fixed into an orbital culture shaker Max-Q 4000 Thermo Scientific to keep the incubation at 37° C., 100 rpm. Every 2 hours, the fluorescence intensity was measured using a Victor3.0 Multilabel Reader by exciting the mixtures with 430-450 filter and collecting the emission intensity with 480-510 filter (triplicates for each measurement). Each plate contained 3 α-synuclein controls in the absence of any compound. The averaged Th-T fluorescence obtained for these wells at the end of the experiment was normalized to 1 and the kinetic curves in the different wells re-scaled accordingly. Re-scaled curves were used to compare the controls with the effect of the tested compound and to ensure that the controls were reproducible between different experiments. […] After 2 weeks, scattering of the samples was analyzed at 300 nm and 340 nm using a Varian fluorimeter. […]

[4] = target: T4, human H50Q mutant α-synuclein (Homo sapiens, UniProt P37840, H50Q); test: thioflavin-T aggregation assay, H50Q mutant; format: biochemical; conditions: 100 μM compound, 70 μM α-synuclein, 24 h
T4 construct: made in house; host or cells: E. coli BL21 (DE3)
Description: as §1

[5] = target: T3, human wild-type α-synuclein; test: α-synuclein aggregation and thioflavin-T assay; format: biochemical
Description: Previously lyophilized α-synuclein was carefully dissolved in PBS buffer to a final concentration of 210 μM and filtered through a Millipore s 0.22-μm filter. α-synuclein aggregation assay was performed in a 96 wells plate (non-treated, black plastic) containing in each well a Teflon polyball (3.175 mm in diameter), 40 μM thioflavin-T, 70 μM α-synuclein, 100 μM of the tested compound and PBS up to a final volume of 150 μL. Plates were fixed into an orbital culture shaker Max-Q 4000 Thermo Scientific to keep the incubation at 37° C., 100 rpm. Every 2 hours, the fluorescence intensity was measured using a Victor3.0 Multilabel Reader by exciting the mixtures with 430-450 filter and collecting the emission intensity with 480-510 filter (triplicates for each measurement). Each plate contained 3 α-synuclein controls in the absence of any compound. The averaged Th-T fluorescence obtained for these wells at the end of the experiment was normalized to 1 and the kinetic curves in the different wells re-scaled accordingly. Re-scaled curves were used to compare the controls with the effect of the tested compound and to ensure that the controls were reproducible between different experiments. For the titration assay, different concentrations of tested compound (200, 150, 100, 75 and 25 μM) were used. For the scattering assay, 70 μM α-synuclein, 100 μM of the tested compound or DMSO (in control samples) and PBS up to a final volume of 1 mL were incubated in low-binding plastic tubes (Protein LoBind Tube 1.5 mL, Eppendorf) using a thermomixer (Thermomixer comfort, Eppendorf) at 37° C. and 600 rpm. After 2 weeks, scattering of the samples was analyzed at 300 nm and 340 nm using a Varian fluorimeter.
Each sample was tested in triplicate. Each plate contained an also triplicated control without tested compound.
In the aggregation assay described above, α-synuclein aggregates within approximately 24 h with a sigmoidal aggregation curve.

[6] = 70 μM α-synuclein, 100 μM compound, 37° C.

N#Cc1c(O)nc(-c2cccc([N+](=O)[O-])c2)c([N+](=O)[O-])c1C(F)(F)F [compound D, 2-hydroxy-5-nitro-6-(3-nitrophenyl)-4-(trifluoromethyl)nicotinonitrile]
CC50 at 72 h (in vitro): > 700 µM | number and size of α-synuclein fibrils compared to control (TEM) (α-synuclein fibrils): significant decrease in both number and size of α-synuclein fibrils | α-synuclein-YFP protein inclusions in muscle cells of the worms [1]: significantly decreased | inhibition of human A30P mutant α-synuclein aggregation (thioflavin-T fluorescence) [2]: inhibits | inhibition of human wild-type α-synuclein aggregation (scattering at 300 nm and 340 nm) [3]: inhibits | inhibition of human H50Q mutant α-synuclein aggregation (thioflavin-T fluorescence) [4]: inhibits | delay of halftime of aggregation relative to the control [5, 6]: 3 h | inhibition of α-synuclein aggregation at the end of the aggregation reaction relative to the control (thioflavin-T fluorescence) [5, 6]: 32.4% | anti-aggregation activity in titration assays ([5]; 200, 150, 100, 75 and 25 μM compound, 70 μM α-synuclein): clear dose-dependent anti-aggregation activity | k1 (nucleation rate constant), Finke-Watzky two-step model ([5]; fitted aggregation curves): decreased | k2 (growth rate constant), Finke-Watzky two-step model ([5]; fitted aggregation curves): decreased | activity at sub-stoichiometric protein:compound ratios ([5]; titration assay, 70 μM α-synuclein): showed activity
